A short description of series [1]: RP, Waters ACQUITY UPLC BEH C18, 100 × 1 mm, 1.7 µm, 50 °C, 0.3 mL/min, estimated dead time 0.17 min; A: water + 0.1% formic acid + 20 mM ammonium formate; B: methanol + 0.1% formic acid + 20 mM ammonium formate; gradient (min/%B) 0/0 15/100 21/100 22/0 30/0. Particulars: stereoisomer not certain.
Series [2] can be described thus: RP, Waters ACQUITY UPLC BEH C18, 100 × 1 mm, 1.7 µm, 50 °C, 0.3 mL/min, estimated dead time 0.17 min; A: water + 10 mM ammonium bicarbonate; B: 10% water + 90% methanol + 10 mM ammonium bicarbonate; gradient (min/%B) 0/0 15/100 21/100 22/0 30/0. As to conditions: stereoisomer not certain.

With `CC=C(C)C(=O)OC1CCN2CC=C(COC(=O)C(O)(C(C)O)C(C)(C)O)C12` (centres undefined) [Echimidine], the LC retention time is 9.4 min in series [1] and 13.2 min in series [2].

In the case of `CC=C(C)C(=O)OC1CC[N+]2([O-])CC=C(COC(=O)C(O)(C(C)OC)C(C)(C)O)C12` (centres undefined) [Lasiocarpine N-oxide], the LC retention time in series [1] was 11 min; in series [2], 11.7 min.

With `CNC(=O)ON=CC(C)(C)SC` [Aldicarb], the results for the LC retention time in series [1] and in series [2] were 16.1 min and 16.4 min, respectively.

Take `CNC1(c2ccccc2Cl)CCCCC1=O` (centres undefined) [Ketamine]: the LC retention time in series [1] is 8.96 min; in series [2] it was 13.5 min.

Take `CC(C)(C)C(O)C(Cc1ccc(Cl)cc1)n1cncn1` (centres undefined) [Paclubutrazole]: the LC retention time in series [1] was 14.4 min; in series [2], 14.6 min.

Turning to `CC(C)NCC(O)COc1cccc2[nH]ccc12` (centres undefined) [Pindolol], the LC retention time was 7.51 min in series [1] and 10.2 min in series [2].

For the compound `CCOP(=S)(OCC)Oc1ccc(=O)n(-c2ccccc2)n1` [Pyridaphenthion], the LC retention time was 14.6 min in series [1] and 14.8 min in series [2].

As for `O=C1CC2(CCCCC2)CN1` [Gabapentin-Lactam], the LC retention time was 11.3 min in series [1] and 11.4 min in series [2].

In the case of `CCC12CCCN3CCc4c(n(c5ccccc45)C(O)(C(=O)OC)C1)C32` (centres undefined) [Vincamin], the LC retention time is 9.43 min in series [1] and 14.6 min in series [2].

For `CN1C(=O)CC(C)(c2ccccc2)C1=O` (centres undefined) [Methsuximide], the LC retention time in series [1] is 11.2 min; in series [2], 11.4 min.

Turning to `CC(=O)C1(O)CCC2C3CC(C)C4=CC(=O)C=CC4(C)C3(F)C(O)CC21C` (centres undefined) [Fluorometholone], the LC retention time in series [1] was 13.8 min; in series [2], 14.1 min.

As for `CC12C=CC(=O)C=C1CCC1C2C(=O)CC2(C)C1CCC2(O)C(=O)CO` (centres undefined) [Prednisone], the figures for the LC retention time in series [1] and in series [2] were 12 min and 12.2 min, respectively.

`O=[N+]([O-])c1ccc(O)c([N+](=O)[O-])c1` [2,4-Dinitrophenol]: the LC retention time was 9.71 min in series [1] and 6.21 min in series [2].

For the compound `CC(=O)OCC(=O)C12OC3(CCCC3)OC1CC1C3CCC4=CC(=O)C=CC4(C)C3(F)C(O)CC12C` (centres undefined) [Amcinonide], the values for the LC retention time in series [1] and in series [2] were 15.6 min and 16 min, respectively.

With `CCOC1C(OC)C(C)OC(OC2CC3CCC4C5CC(=O)OC(CC)CCCC(OC6CCC(N(C)C)C(C)O6)C(C)C(=O)C5=CC4C3C2)C1OC` (centres undefined) [Spinetoram], the LC retention time in series [1] is 16.2 min; in series [2] it was 19.2 min.

For `CCOC(=O)NCCOc1ccc(Oc2ccccc2)cc1` [Fenoxycarb], the LC retention time in series [1] is 15.3 min; in series [2] it was 15.6 min.

On to `CC[N+]1([O-])CCCC1CNC(=O)c1cc(S(N)(=O)=O)ccc1OC` (centres undefined) [Sulpiride N-Oxide], for which the values for the LC retention time in series [1] and in series [2] were 6.62 min and 6.84 min, respectively.

Consider `CN1CCN(C2=Nc3cc(Cl)ccc3Nc3ccccc32)CC1` [Clozapine], for which the LC retention time in series [1] was 11.7 min; in series [2] it was 15.7 min.

Regarding `CCN(CC)CCNC(=O)c1cc(S(C)(=O)=O)ccc1OC` [Tiapride], the LC retention time was 6.49 min in series [1] and 10.8 min in series [2].

Turning to `O=C1Nc2ccc(Cl)cc2C(c2ccccc2)=NC1O` (centres undefined) [Oxazepam], the LC retention time in series [1] was 13.2 min; in series [2], 13.5 min.

Take `CC(=O)C1CCC2C3CCC4=CC(=O)CCC4(C)C3CCC12C` (centres undefined) [Progesterone]: the figures for the LC retention time in series [1] and in series [2] were 15.5 min and 15.9 min, respectively.

On to `COCC(C)N(C(=O)CS(=O)CC(=O)O)c1c(C)csc1C` (centres undefined) [Dimethenamid M31], for which the LC retention time in series [1] is 11.4 min; in series [2], 10.6 min.

As to `CC12C=CC3=C4CCC(=O)C=C4CCC3C1CCC2O` (centres undefined) [Trenbolone], the LC retention time was 13.4 min in series [1] and 13.6 min in series [2].

In the case of `N#Cc1c(Cl)c(Cl)c(O)c(C(N)=O)c1Cl`, the LC retention time in series [1] is 10 min; in series [2], 8.11 min.

For `CC(C)(C)C(O)C(Cc1ccc(Cl)cc1Cl)n1cncn1` (centres undefined) [Dichlobutrazol], the LC retention time in series [1] was 15.4 min; in series [2], 15.8 min.

In the case of `c1ccc2sc(SN3CCOCC3)nc2c1` [2-Morpholinothiobenzothiazole], the LC retention time in series [1] was 12.1 min; in series [2], 10 min.

As to `CCC(=O)OC1(C(=O)SCF)C(C)CC2C3CC(F)C4=CC(=O)C=CC4(C)C3(F)C(O)CC21C` (centres undefined) [Fluticasone propionate], the LC retention time in series [1] was 15.3 min; in series [2] it was 15.6 min.

As to `CC=C1CC2(CO)OC2(C)C(=O)OCC2=CC[N+]3([O-])CCC(OC1=O)C23` (centres undefined) [Erucifoline N-oxide], the LC retention time in series [1] was 6.51 min; in series [2], 6.82 min.

For `O=C(OCc1ccccc1)c1ccccc1C(=O)OCc1ccccc1` [Dibenzylphthalate], the LC retention time was 16.3 min in series [1] and 16.7 min in series [2].

Turning to `N=c1nc(N)c(-c2cccc(Cl)c2Cl)nn1O` [Lamotrigin-N2-Oxid], the LC retention time in series [1] is 9.42 min; in series [2], 9.15 min.

Consider `CC(=O)N1CCN(c2ccc(OCC3COC(Cn4ccnc4)(c4ccc(Cl)cc4Cl)O3)cc2)CC1` (centres undefined) [Ketoconazole], for which the LC retention time in series [1] is 13.3 min; in series [2], 16.1 min.

On to `CCOc1cc(C(C)(C)C)ccc1C1COC(c2c(F)cccc2F)=N1` (centres undefined) [Etoxazole], for which the LC retention time in series [1] was 17.4 min; in series [2], 17.8 min.

Turning to `Cc1c(Cl)cccc1Nc1ccccc1C(=O)O` [Tolfenamics<e4>ure], the results for the LC retention time in series [1] and in series [2] were 16.7 min and 14.4 min, respectively.

Turning to `O=C1NC2C(=CC(O)C(O)C2O)c2cc3c(c(O)c21)OCO3` (centres undefined) [Narciclasine], the results for the LC retention time in series [1] and in series [2] were 7.92 min and 7.93 min, respectively.

Turning to `CCC(=O)OC(Cc1ccccc1)(c1ccccc1)C(C)CN(C)C` (centres undefined) [Propoxyphene], the LC retention time was 12.5 min in series [1] and 16.8 min in series [2].

For `COc1ccc(-c2ccccc2)cc1NNC(=O)OC(C)C` [Bifenazate], the LC retention time in series [1] was 14.7 min; in series [2], 15 min.

Regarding `O=c1c2cc(F)ccc2nc(-n2cncn2)n1-c1ccc(Cl)cc1Cl` [Fluquinconazole], the results for the LC retention time in series [1] and in series [2] were 14.7 min and 15 min, respectively.

In the case of `Nc1ccc(S(=O)(=O)Nc2ncccn2)cc1` [Sulfadiazin], the LC retention time was 6 min in series [1] and 2.61 min in series [2].

Take `CNCC(O)c1cccc(O)c1` (centres undefined) [Phenylephrine]: the LC retention time is 2.01 min in series [1] and 5.43 min in series [2].

For `CCCCCCCCCCSCCOCCO` [2(2(decylsulfanyl)ethoxy)ethanol], the LC retention time in series [1] was 17.7 min; in series [2] it was 18.1 min.

For `CCS(=O)(=O)c1nnc(N(C)C(=O)NC)s1` [Ethidimuron], the figures for the LC retention time in series [1] and in series [2] were 8.76 min and 8.81 min, respectively.

For the compound `CCCCC(CC)COC(=O)CC(C(=O)OCC(CC)CCCC)S(=O)(=O)O` (centres undefined) [Dioctylsulfosuccinate], the LC retention time in series [1] is 17 min; in series [2], 17.3 min.
